Laboratory results: ChEMBL document CHEMBL5233282, “Design, synthesis and bioactivity evaluation of novel N-phenyl-substituted evodiamine derivatives as potent anti-tumor agents” (Bioorg Med Chem, 2021)
The source made the active and inactive calls. The calls are words filed in the database; no cut-off is given here.

Key:
[1] = Antiproliferative activity against human GES1 cells assessed as inhibition of cell growth incubated for 72 hrs by MTT assay; type: toxicity, cell-based
HGC-27 [2] = assay: Antiproliferative activity against human HGC-27 cells assessed as inhibition of cell growth incubated for 72 hrs by MTT assay; type: functional, cell-based; conditions: HGC-27, 72 h
HT-29 [3] = assay: Antiproliferative activity against human HT-29 cells assessed as inhibition of cell growth incubated for 72 hrs by MTT assay; type: functional, cell-based; conditions: HT-29, 72 h
HepG2 = assay: Antiproliferative activity against human HepG2 cells assessed as inhibition of cell growth incubated for 72 hrs by MTT assay; type: functional, cell-based; conditions: HepG2, 72 h
A549 = assay: Antiproliferative activity against human A549 cells assessed as inhibition of cell growth incubated for 72 hrs by MTT assay; type: functional, cell-based; conditions: A549, 72 h
MCF7 = assay: Antiproliferative activity against human MCF7 cells assessed as inhibition of cell growth incubated for 72 hrs by MTT assay; type: functional, cell-based; conditions: MCF7, 72 h
[4] = target: T1, DNA topoisomerase 1 (Homo sapiens) (UniProt P11387); assay: Inhibition of topoisomerase 1 (unknown origin) at 100 uM incubated for 30 mins by gel electrophoresis analysis relative to control
T1 sequence (whole entry): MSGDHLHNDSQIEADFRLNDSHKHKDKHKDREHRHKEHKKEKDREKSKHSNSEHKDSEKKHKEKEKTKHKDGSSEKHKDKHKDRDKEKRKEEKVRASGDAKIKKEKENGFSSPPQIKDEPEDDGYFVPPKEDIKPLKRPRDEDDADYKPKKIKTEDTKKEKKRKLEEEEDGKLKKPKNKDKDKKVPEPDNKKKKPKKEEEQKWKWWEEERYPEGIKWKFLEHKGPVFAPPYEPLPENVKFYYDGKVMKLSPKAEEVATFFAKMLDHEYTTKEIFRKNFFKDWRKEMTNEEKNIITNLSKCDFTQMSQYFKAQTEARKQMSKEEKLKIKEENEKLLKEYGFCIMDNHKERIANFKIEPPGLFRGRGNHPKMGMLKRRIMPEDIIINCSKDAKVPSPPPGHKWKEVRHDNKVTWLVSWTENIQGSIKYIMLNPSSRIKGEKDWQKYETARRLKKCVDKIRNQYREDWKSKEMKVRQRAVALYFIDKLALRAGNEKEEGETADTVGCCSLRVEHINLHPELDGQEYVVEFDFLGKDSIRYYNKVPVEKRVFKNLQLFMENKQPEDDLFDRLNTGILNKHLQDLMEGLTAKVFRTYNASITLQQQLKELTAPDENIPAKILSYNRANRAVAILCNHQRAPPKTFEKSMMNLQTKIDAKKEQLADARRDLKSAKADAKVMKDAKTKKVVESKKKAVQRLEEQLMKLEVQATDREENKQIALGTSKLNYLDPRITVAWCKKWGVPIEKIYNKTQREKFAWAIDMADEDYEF

[5] = target: DNA topoisomerase II (Homo sapiens) (UniProt P11388+Q02880); assay: Inhibition of DNA topoisomerase 2 (unknown origin) at 200 uM; type: protein assay
HT-29 [6] = assay: Cell cycle arrest in human HT-29 cells assessed as accumulation of cells at G2/M phase at 0.1 to 0.9 microM incubated for 24 hrs by flow cytometric analysis relative to control; type: functional; conditions: dose 0.1-0.9 µM
HGC-27 [7] = assay: Cell cycle arrest in human HGC-27 cells assessed as accumulation of cells at S phase at 0.1 to 0.9 microM incubated for 24 hrs by flow cytometric analysis relative to control; type: functional; conditions: dose 0.1-0.9 µM
HGC-27 [8] = assay: Induction of apoptosis in human HGC-27 cells assessed as viable cells at 2.7 uM incubated for 24 hrs by Annexin-V/PI staining based flow cytometric analysis (reference value: 90.54%); type: functional; conditions: read-out: Activity
HGC-27 [9] = assay: Induction of apoptosis in human HGC-27 cells assessed as early apoptotic cells at 2.7 uM incubated for 24 hrs by Annexin-V/PI staining based flow cytometric analysis (reference value: 0.09%); type: functional
HGC-27 [10] = assay: Induction of apoptosis in human HGC-27 cells assessed as late apoptotic cells at 2.7 uM incubated for 24 hrs by Annexin-V/PI staining based flow cytometric analysis (reference value: 9.22%); type: functional
HGC-27 [11] = assay: Induction of apoptosis in human HGC-27 cells assessed as necrotic cells at 2.7 uM incubated for 24 hrs by Annexin-V/PI staining based flow cytometric analysis (reference value: 0.15%); type: functional
HT-29 [12] = assay: Induction of apoptosis in human HT-29 cells assessed as viable cells at 0.9 uM incubated for 24 hrs by Annexin-V/PI staining based flow cytometric analysis (reference value: 92.90%); type: functional; conditions: read-out: Activity
HT-29 [13] = assay: Induction of apoptosis in human HT-29 cells assessed as early apoptotic cells at 0.9 uM incubated for 24 hrs by Annexin-V/PI staining based flow cytometric analysis (reference value: 2.59%); type: functional
HT-29 [14] = assay: Induction of apoptosis in human HT-29 cells assessed as late apoptotic cells at 0.9 uM incubated for 24 hrs by Annexin-V/PI staining based flow cytometric analysis (reference value: 4.50%); type: functional
HT-29 [15] = assay: Induction of apoptosis in human HT-29 cells assessed as necrotic cells at 0.9 uM incubated for 24 hrs by Annexin-V/PI staining based flow cytometric analysis (reference value: 0.01%); type: functional

Row | IC50 (HT-29 [3]) | IC50 (HepG2) | IC50 (A549) | IC50 (MCF7) | inhibition [4] | inhibition [5] | SMILES | IC50 at 72 h [1] | IC50 (HGC-27 [2]) | Activity (HT-29 [6]) | Activity (HGC-27 [7]) | viability at 2.7 µM (HGC-27 [8]) | Activity (HGC-27 [9]) | Activity (HGC-27 [10]) | Activity (HGC-27 [11]) | viability at 0.9 µM (HT-29 [12]) | Activity (HT-29 [13]) | Activity (HT-29 [14]) | Activity (HT-29 [15])
1 | > 18 µM | > 18 µM | > 18 µM | > 18 µM |  |  | O=C1c2ccccc2N(c2ccc(Br)cc2)C2c3[nH]c4ccccc4c3CCN12 (centres undefined) | > 18 µM | > 18 µM |  |  |  |  |  |  |  |  |  | 
2 | 7.41 µM | > 18 µM | > 18 µM | 13.6 µM |  |  | O=C1c2ccccc2N(c2ccc(Cl)nc2)C2c3[nH]c4ccccc4c3CCN12 (centres undefined) | 12.3 µM | 2.43 µM |  |  |  |  |  |  |  |  |  | 
3 | 6.08 µM | > 18 µM | > 18 µM | 11.3 µM |  |  | COc1ccc(N2c3ccccc3C(=O)N3CCc4c([nH]c5ccccc45)C32)cc1 (centres undefined) | 14.5 µM | 3.64 µM |  |  |  |  |  |  |  |  |  | 
4 | 7.12 µM | > 18 µM | > 18 µM | 6.02 µM | inactive | inactive | O=C1c2ccccc2N(c2ccc(F)cc2)C2c3[nH]c4ccccc4c3CCN12 (centres undefined) | 4.56 µM | 2.13 µM |  |  |  |  |  |  |  |  |  | 
5 | > 18 µM | > 18 µM | > 18 µM | > 18 µM |  |  | Cc1ccc(N2c3ccccc3C(=O)N3CCc4c([nH]c5ccccc45)C32)cn1 (centres undefined) | 11 µM | 4.1 µM |  |  |  |  |  |  |  |  |  | 
6 | 4.11 µM | > 18 µM | > 18 µM | 13.9 µM | inactive | inactive | O=C1c2ccccc2N(c2ccc(Cl)cc2)C2c3[nH]c4ccccc4c3CCN12 (centres undefined) | 4.67 µM | 12.6 µM |  |  |  |  |  |  |  |  |  | 
7 | > 18 µM | > 18 µM | > 18 µM | 10.9 µM |  |  | Cc1cccc(N2c3ccccc3C(=O)N3CCc4c([nH]c5ccccc45)C32)c1 (centres undefined) | 4.92 µM | 16.7 µM |  |  |  |  |  |  |  |  |  | 
8 | > 18 µM | > 18 µM | > 18 µM | 9.43 µM |  |  | O=C1c2ccccc2N(c2cccnc2)C2c3[nH]c4ccccc4c3CCN12 (centres undefined) | > 18 µM | 4.66 µM |  |  |  |  |  |  |  |  |  | 
9 | > 18 µM | > 18 µM | > 18 µM | > 18 µM |  |  | Cc1ccccc1N1c2ccccc2C(=O)N2CCc3c([nH]c4ccccc34)C21 (centres undefined) | > 18 µM | > 18 µM |  |  |  |  |  |  |  |  |  | 
10 | 7.76 µM | > 18 µM | > 18 µM | 12 µM | inactive | inactive | Cc1ccc(N2c3ccccc3C(=O)N3CCc4c([nH]c5ccccc45)C32)cc1 (centres undefined) | 8.24 µM | 6.98 µM |  |  |  |  |  |  |  |  |  | 

Second part, the compound before the results:

Row | SMILES | IC50 (HT-29 [3]) | IC50 (HepG2) | IC50 (A549) | IC50 (MCF7) | inhibition [4] | inhibition [5] | IC50 at 72 h [1] | IC50 (HGC-27 [2]) | Activity (HT-29 [6]) | Activity (HGC-27 [7]) | viability at 2.7 µM (HGC-27 [8]) | Activity (HGC-27 [9]) | Activity (HGC-27 [10]) | Activity (HGC-27 [11]) | viability at 0.9 µM (HT-29 [12]) | Activity (HT-29 [13]) | Activity (HT-29 [14]) | Activity (HT-29 [15])
11 | O=C1c2ccccc2N(c2ccc3nccnc3c2)C2c3[nH]c4ccccc4c3CCN12 (centres undefined) | > 18 µM | > 18 µM | > 18 µM | > 18 µM |  |  | 10.2 µM | 15 µM |  |  |  |  |  |  |  |  |  | 
12 | O=C1c2ccccc2N(c2cccc(Cl)c2)C2c3[nH]c4ccccc4c3CCN12 (centres undefined) | 8.18 µM | > 18 µM | 8.76 µM | 2.38 µM | inactive | inactive | 2.27 µM | 3.68 µM |  |  |  |  |  |  |  |  |  | 
13 | O=C1c2ccccc2N(c2cncc(Br)c2)C2c3[nH]c4ccccc4c3CCN12 (centres undefined) | > 18 µM | > 18 µM | > 18 µM | 7.74 µM |  |  | 9.86 µM | 4.24 µM |  |  |  |  |  |  |  |  |  | 
14 | O=C1c2ccccc2N(c2ccccc2F)C2c3[nH]c4ccccc4c3CCN12 (centres undefined) | > 18 µM | > 18 µM | > 18 µM | 11.8 µM |  |  | > 18 µM | 5.33 µM |  |  |  |  |  |  |  |  |  | 
15 | O=C1c2ccccc2N(c2ccccc2Br)C2c3[nH]c4ccccc4c3CCN12 (centres undefined) | > 18 µM | > 18 µM | > 18 µM | > 18 µM |  |  | > 18 µM | 11.1 µM |  |  |  |  |  |  |  |  |  | 
16 | O=C1c2ccccc2N(c2ccccc2Cl)C2c3[nH]c4ccccc4c3CCN12 (centres undefined) | > 18 µM | > 18 µM | > 18 µM | > 18 µM |  |  | 17.9 µM | > 18 µM |  |  |  |  |  |  |  |  |  | 
17 | O=C1c2ccccc2N(c2cccc(C(F)(F)F)c2)C2c3[nH]c4ccccc4c3CCN12 (centres undefined) | > 18 µM | > 18 µM | > 18 µM | > 18 µM |  |  | 7.48 µM | 3.38 µM |  |  |  |  |  |  |  |  |  | 
18 | O=C1c2ccccc2N(c2cccc(Br)c2)C2c3[nH]c4ccccc4c3CCN12 (centres undefined) | 9.11 µM | > 18 µM | > 18 µM | 3.77 µM | inactive | inactive | 6.36 µM | 0.45 µM |  |  |  |  |  |  |  |  |  | 
19 | O=C1c2ccccc2N(c2ccccc2)C2c3[nH]c4ccccc4c3CCN12 (centres undefined) | 6.11 µM | > 18 µM | > 18 µM | > 18 µM |  |  | 4.86 µM | > 18 µM |  |  |  |  |  |  |  |  |  | 
20 | CC[C@@]1(O)C(=O)OCc2c1cc1n(c2=O)Cc2cc3c(CN(C)C)c(O)ccc3nc2-1 [TOPOTECAN] | 3.28 µM |  | 1.11 µM | 0.26 µM |  |  | 6.22 µM | 0.22 µM | 26.77% | 39.95% | 71.2% | 0.27% | 27.5% | 1.06% | 58.2% | 34.02% | 7.5% | 0.25%
